Test results: US20190275033A1 (Boehringer Ingelheim International GmbH, priority 2016, published 2019)
“Also recorded” adds a separate entry of the source.

Legend:
PDGFR-β = target: T1, PDGFR-β (Homo sapiens, UniProt P09619); conditions: normal human lung fibroblasts in vitro; cited from earlier work
T1 construct: endogenous in cells; host or cells: normal human lung fibroblasts

mouse models of IPF = conditions: in vivo; cited from earlier work
[1] = system: vascular endothelial growth factor receptors (VEGFRs); conditions: preclinical studies; cited from earlier work
[2] = system: primary human lung fibroblasts from IPF patients; conditions: cited from earlier work
human lung fibroblast = assay: Human lung fibroblast contraction; format: cell-based; conditions: clinically relevant concentrations
[3] = system: Bleomycin-induced lung fibrosis in rats; assay: Bleomycin-induced lung fibrosis in rats; format: in vivo
human lung fibroblasts = conditions: cited from earlier work
[4] = system: Silica-induced lung fibrosis in mice; assay: Silica-induced lung fibrosis in mice; format: in vivo
[5] = system: Rheumatoid arthritis and lung fibrosis in SKG mice; assay: Rheumatoid arthritis and lung fibrosis in zymosan-stimulated SKG mice (RA-ILD model)
Source text: Whether this inflammation is helpful to resolve the fibrosis or detrimental remains open.
INTRODUCTION: Rheumatoid arthritis preferentially affects women and approximately […] of patients have lung abnormalities and involvement. From this group approximately 20% will develop rheumatoid arthritis-associated interstitial lung disease (RA-ILD).
RATIONALE: SKG mice, genetically prone to develop autoimmune arthritis, also develop a pulmonary interstitial pneumonia that resembles human cellular and fibrotic non-specific interstitial pneumonia.
Inflammation in the lungs was measured by BAL (bronchoalveolar lavage) cellularity and in enzymatically-digested lungs. Arthritis of joints and digits was scored weekly.

[6] = system: animal models of lung fibrosis; assay: Three animal models of lung fibrosis; format: in vivo
[7] = system: lung fibroblasts from patients with IPF; conditions: cited from earlier work
[8] = system: Bleomycin-induced lung fibrosis in mice; assay: Bleomycin-induced lung fibrosis in mice; format: in vivo
[9] = cited from earlier work
[10] = system: fibroblast growth factor receptors (FGFRs); conditions: preclinical studies; cited from earlier work
PDGFR-α = target: T2, PDGFR-α (Homo sapiens, UniProt P16234); conditions: normal human lung fibroblasts in vitro; cited from earlier work
T2 construct: endogenous in cells; host or cells: normal human lung fibroblasts

[11] = system: animal models of SSc and SSc-ILD; assay: Four animal models of SSc and SSc-ILD; format: in vivo
[12] = system: primary human lung fibroblasts from IPF patients; assay: Fibroblast to myofibroblast transformation of human lung fibroblasts; format: cell-based
Source text: Nintedanib also attenuated the transformation of lung fibroblasts to myofibroblasts. Fibroblast proliferation, migration and transformation are fundamental processes in the common final path of several diseases resulting in lung fibrosis such as IPF but also SSc-ILD and RA-ILD.

[13] = system: collagen-induced arthritis (CIA); assay: Mouse model of collagen-induced arthritis (CIA); format: in vivo; conditions: treatment started 13 days after induction, continued for 5 weeks
[14] = preclinical studies; cited from earlier work
[15] = system: bleomycin-induced skin fibrosis in mice; conditions: therapeutic nintedanib treatment; cited from earlier work
[16] = human lung fibroblasts from patients with IPF and control donors
[17] = early treatment, developing lung disease
[18] = early treatment, from week 5 after zymosan
[19] = late treatment, week 16, vs saline
[20] = preventive or therapeutic dosing regimen
[21] = lung fibroblasts from patients with IPF

T2 sequence (P16234 24-1089): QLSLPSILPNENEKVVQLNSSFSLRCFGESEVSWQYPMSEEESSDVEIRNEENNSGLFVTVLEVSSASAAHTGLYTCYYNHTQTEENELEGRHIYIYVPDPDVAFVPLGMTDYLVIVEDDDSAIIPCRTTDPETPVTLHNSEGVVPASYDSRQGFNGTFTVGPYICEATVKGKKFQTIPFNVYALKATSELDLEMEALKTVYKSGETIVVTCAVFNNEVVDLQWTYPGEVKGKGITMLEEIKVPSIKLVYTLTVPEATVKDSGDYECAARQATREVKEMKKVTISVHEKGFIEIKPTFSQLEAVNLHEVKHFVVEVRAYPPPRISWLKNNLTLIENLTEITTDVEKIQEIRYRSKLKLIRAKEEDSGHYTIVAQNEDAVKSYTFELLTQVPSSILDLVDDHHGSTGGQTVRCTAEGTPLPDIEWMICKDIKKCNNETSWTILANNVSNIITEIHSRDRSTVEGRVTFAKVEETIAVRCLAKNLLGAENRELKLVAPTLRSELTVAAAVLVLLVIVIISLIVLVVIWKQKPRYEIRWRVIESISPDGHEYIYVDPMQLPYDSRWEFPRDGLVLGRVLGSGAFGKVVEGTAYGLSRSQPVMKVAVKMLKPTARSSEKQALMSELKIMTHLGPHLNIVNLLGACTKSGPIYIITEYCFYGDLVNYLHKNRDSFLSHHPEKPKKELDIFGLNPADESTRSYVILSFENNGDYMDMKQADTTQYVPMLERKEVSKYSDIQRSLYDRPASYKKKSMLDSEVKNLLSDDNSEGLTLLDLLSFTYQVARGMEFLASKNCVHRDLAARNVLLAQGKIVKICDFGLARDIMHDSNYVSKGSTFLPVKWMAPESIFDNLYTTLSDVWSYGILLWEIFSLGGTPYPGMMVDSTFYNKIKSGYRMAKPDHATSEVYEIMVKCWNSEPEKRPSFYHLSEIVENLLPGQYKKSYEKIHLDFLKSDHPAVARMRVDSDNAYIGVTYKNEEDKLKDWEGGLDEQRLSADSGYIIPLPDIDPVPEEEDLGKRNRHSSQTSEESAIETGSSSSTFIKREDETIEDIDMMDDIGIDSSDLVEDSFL
T1 sequence (P09619 33-1106): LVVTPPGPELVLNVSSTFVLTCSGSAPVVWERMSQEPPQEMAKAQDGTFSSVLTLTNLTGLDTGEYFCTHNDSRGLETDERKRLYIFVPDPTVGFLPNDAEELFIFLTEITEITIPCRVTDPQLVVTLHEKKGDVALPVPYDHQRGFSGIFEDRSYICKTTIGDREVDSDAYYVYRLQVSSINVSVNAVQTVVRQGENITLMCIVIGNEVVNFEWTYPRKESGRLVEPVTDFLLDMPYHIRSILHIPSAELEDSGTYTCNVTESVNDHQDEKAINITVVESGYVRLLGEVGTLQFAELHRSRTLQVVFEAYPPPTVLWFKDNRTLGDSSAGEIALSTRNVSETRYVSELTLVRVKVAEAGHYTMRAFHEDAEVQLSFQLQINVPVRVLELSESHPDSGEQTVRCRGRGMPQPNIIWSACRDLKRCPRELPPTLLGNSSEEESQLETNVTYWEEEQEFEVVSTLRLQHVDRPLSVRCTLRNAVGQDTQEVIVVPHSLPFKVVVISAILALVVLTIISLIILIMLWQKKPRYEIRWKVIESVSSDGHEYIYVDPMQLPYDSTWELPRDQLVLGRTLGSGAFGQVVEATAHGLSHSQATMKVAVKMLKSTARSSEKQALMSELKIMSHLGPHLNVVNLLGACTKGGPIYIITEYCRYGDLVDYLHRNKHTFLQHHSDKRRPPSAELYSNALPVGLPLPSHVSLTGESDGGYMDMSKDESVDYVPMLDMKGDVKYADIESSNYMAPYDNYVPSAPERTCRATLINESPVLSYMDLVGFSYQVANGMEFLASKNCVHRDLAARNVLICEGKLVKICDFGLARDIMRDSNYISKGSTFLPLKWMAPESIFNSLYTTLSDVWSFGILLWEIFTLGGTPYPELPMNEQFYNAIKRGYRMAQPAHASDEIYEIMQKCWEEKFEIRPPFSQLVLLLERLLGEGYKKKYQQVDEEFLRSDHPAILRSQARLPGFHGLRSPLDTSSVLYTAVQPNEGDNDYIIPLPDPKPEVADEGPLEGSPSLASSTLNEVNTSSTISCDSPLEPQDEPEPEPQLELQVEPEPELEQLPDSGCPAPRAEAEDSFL

In the case of `COC(=O)c1ccc2c(c1)NC(=O)/C2=C(\Nc1ccc(N(C)C(=O)CN2CCN(C)CC2)cc1)c1ccccc1` [nintedanib, 3-Z-[1-(4-(N-((4-methyl-piperazin-1-yl)-methylcarbonyl)-N-methyl-amino)-anilino)-1-phenyl-methylene]-6-methoxycarbonyl-2-indolinone], the PDGFR-β activation (PDGFR-β) is given as “inhibit”, the “fibrosis in histological analyses” value (mouse models of IPF) is given as “reduced” and the “granuloma formation in histological analysis of lung tissue” value (mouse models of IPF) is given as “reduced”. For the same compound, the “inflammation in histological analysis of lung tissue” value (mouse models of IPF) was “reduced”, the inflammatory cytokines (mouse models of IPF) was “reductions” and the “lymphocyte counts in the bronchoalveolar lavage fluid” value (mouse models of IPF) was “significant reductions”. The “neutrophil counts in the bronchoalveolar lavage fluid” value (mouse models of IPF) was “significant reductions”, the total lung collagen (mouse models of IPF) was “significant reductions” and the “inhibition of VEGFRs” value [1] was “highly potent”. For the same compound, the “TGF-β-induced fibroblast to myofibroblast transformation” value [2] was “inhibited”, the “human lung fibroblast contraction” value (human lung fibroblast) was “inhibits” and the “Lung fibrosis (Ashcroft score)” value ([3]; preventive treatment) was “score)↓”. The “Lung fibrosis (Ashcroft score)” value ([3]; therapeutic treatment) was “score)↓”, the “proliferation of human lung fibroblasts from patients with IPF” value (human lung fibroblasts) was “inhibited” and the FGF-2-induced proliferation (human lung fibroblasts; [16]) was “inhibit”. For the same compound, the VEGF-induced proliferation (human lung fibroblasts; [16]) was “inhibit”, the “proliferation of normal human lung fibroblasts” value (human lung fibroblasts; in vitro) was “inhibit” and the “BALF neutrophils + lymphocytes” value ([4]; preventive treatment) was “cytes↓”. The IL-1β ([4]; preventive treatment) was “IL-1β↓”, the KC ([4]; preventive treatment) was “KC↓” and the Lung collagen ([4]; preventive treatment) was “collagen↓”. The Lung fibrosis ([4]; preventive treatment) was “fibrosis↓”, the Lung inflammation ([4]; preventive treatment) was “mation↓” and the TIMP-1 ([4]; preventive treatment) was “TIMP-1↓”. The “BALF neutrophils + lymphocytes” value ([4]; therapeutic treatment) was “cytes↓”, the IL-1β ([4]; therapeutic treatment) was “IL-1β↓” and the IL-6 ([4]; therapeutic treatment) was “IL-6↓”. For the same compound, the KC ([4]; therapeutic treatment) was “KC↓”, the Lung collagen ([4]; therapeutic treatment) was “collagen↓” and the Lung fibrosis ([4]; therapeutic treatment) was “fibrosis↓”. For the same compound, the Lung inflammation ([4]; therapeutic treatment) was “mation↓”, the TIMP-1 ([4]; therapeutic treatment) was “TIMP-1↓” and the “inflammation in the lung” value ([5]; SKG mice treated with zymosan) was “slight but selective inflammation”. For the same compound, the Arthritic score ([5]; early treatment) was “score↓”, the “Lung tissue B220 + B-cells” value ([5]; early treatment) was “B-cells↑” and the “Lung tissue CD103 + Dendritic cells” value ([5]; early treatment) was “cells↑”. The “Lung tissue Monocytes” value ([5]; early treatment) was “Monocytes↓”, the “Lung tissue Neutrophils” value ([5]; early treatment) was “Neutrophils↑” and the static lung compliance ([5]; early treatment) was “ance↑”. The “lymphocytes in the BAL” value [5, 17] was “trend towards increased”, the “neutrophils in the BAL” value [5, 17] was “trend towards increased” and the “total number of alveolar macrophages” value ([5]; early treatment, developing lung disease, vs saline) was “no significant difference”. For the same compound, the “lung collagen deposition (hydroxyproline)” value [5, 18] was “no effect; also recorded: not significantly altered”, the “static lung compliance (lung function)” value [5, 18] was “improved lung function; also recorded: increase in static lung compliance” and the “arthritis score / joint swelling” value ([5]; early treatment, from week 5 after zymosan (week 5-11), 60 mg/kg daily gavage, vs saline, 60 mg/kg) was “attenuated arthritis pathology; also recorded: significant reduction in their development of arthritis; also recorded: significantly reduced; also recorded: reversal of joint swelling”. For the same compound, the “lung collagen (hydroxyproline) / pulmonary fibrosis” value ([5]; late (therapeutic) treatment for six weeks, established arthritis) was “reduction of collagen deposition; also recorded: significant reduction of lung collagen; also recorded: significantly reduces; also recorded: significant decrease”, the “BAL lymphocytes and neutrophils” value ([5]; late treatment) was “neutrophils↑” and the Lung hydroxiproline ([5]; late treatment) was “hydroxiproline↓”. For the same compound, the “Lung tissue inflammatory macrophages” value ([5]; late treatment) was “macrophages↑”, the static lung compliance ([5]; late treatment, established lung disease) was “no significant difference” and the “arthritis score / joint swelling” value ([5]; late treatment, from week 10 after zymosan (week 10-16), established disease, vs saline) was “reduction of the arthritis score if the score was normalized to the last measurement before the start of the nintedanib treatment; also recorded: not altered; also recorded: slightly increased the resolution of joint swelling”. For the same compound, the “alveolar macrophages (BAL)” value ([5]; late treatment, vs saline) was “no significant difference”, the “number of lymphocytes (BAL)” value ([5]; late treatment, vs saline) was “small but significant elevation” and the “number of neutrophils (BAL)” value ([5]; late treatment, vs saline) was “small but significant elevation”. For the same compound, the “total number of BAL cells” value ([5]; late treatment, vs saline) was “no significant difference”, the percent survival [5, 19] was “no significant change” and the weight [5, 19] was “no significant change”. The Arthritic score ([5]; late treatment, if the data is normalised to the last scoring before the nintedanib treatment starts) was “score↓*”, the “B220+ B-cells” value ([5]; lungs, six weeks of nintedanib) was “small but significant increase” and the “CD4+ T-cells” value ([5]; lungs, six weeks of nintedanib) was “small but significant increase”. For the same compound, the macrophage numbers ([5]; lungs, six weeks of nintedanib) was “no changes”, the lung dendritic cells ([5]; nintedanib beginning at week 5) was “significant increase” and the lung neutrophils ([5]; nintedanib beginning at week 5) was “significant increase”. For the same compound, the “increase in lung neutrophils” value ([5]; nintedanib beginning at week 11) was “not at week 11”, the “accumulation of lymphocytes in the bronchoalveolar lavage fluid (BALF)” value ([6]; in vivo) was “attenuated” and the “chemokine CXCL1/KC in lung tissue” value ([6]; in vivo) was “reduced”. For the same compound, the “collagen content in lung tissue” value ([6]; in vivo) was “reduced”, the “interleukin (IL)-10 in lung tissue” value ([6]; in vivo) was “reduced” and the “mRNA expression of procollagen 1” value ([6]; in vivo) was “blocked”. The “mRNA expression of transforming growth factor (TGF)-β1” value ([6]; in vivo) was “blocked”, the “tissue inhibitor of metalloproteinases (TIMP)-1 in lung tissue” value ([6]; in vivo) was “reduced” and the “histology score of fibrosis in lung sections” value [6, 20] was “reduced”. For the same compound, the “histology score of granuloma formation in lung sections” value [6, 20] was “reduced”, the “histology score of inflammation in lung sections” value [6, 20] was “reduced” and the “migration of human lung fibroblasts from patients with IPF” value [7] was “inhibited”. For the same compound, the FGF-2-stimulated migration [7, 21] was “attenuated”, the PDGF-stimulated migration [7, 21] was “attenuated” and the BALF lymphocytes ([8]; preventive treatment) was “cytes↓”. The IL-1β ([8]; preventive treatment) was “IL-1β↓”, the Lung fibrosis ([8]; preventive treatment) was “fibrosis↓” and the Lung inflammation ([8]; preventive treatment) was “mation↓”. For the same compound, the TIMP-1 ([8]; preventive treatment) was “TIMP-1↓”, the BALF lymphocytes ([8]; therapeutic treatment) was “cytes↓” and the IL-1β ([8]; therapeutic treatment) was “IL-1β↓”. The Lung collgen ([8]; therapeutic treatment) was “collgen↓”, the Lung fibrosis ([8]; therapeutic treatment) was “fibrosis↓” and the Lung inflammation ([8]; therapeutic treatment) was “mation↓”. The TIMP-1 ([8]; therapeutic treatment) was “TIMP-1↓”, the “elimination via biliary/faecal excretion” value ([9]; human, in vivo) was over 90% and the exposure ([9]; patients with hepatic impairment (Child Pugh A, Child Pugh B)) was “increased”. The “inhibition of FGFRs” value [10] was “highly potent”, the PDGFR-α activation (PDGFR-α) was “inhibit” and the “number of vascular smooth muscle cells” value ([11]; an animal model of SSc) was “reducing”. The occluded pulmonary vessels ([11]; an animal model of SSc) was “reducing”, the pulmonary vascular remodelling ([11]; an animal model of SSc) was “effectively attenuated” and the Lung fibrosis ([11]; in vivo) was “effectively attenuated”. The “dermal microvascular endothelial cell apoptosis” value ([11]; in vivo) was “reduced”, the dermal thickening ([11]; in vivo) was “reduced” and the “extracellular matrix deposition in skin and lung” value ([11]; in vivo) was “reduced”. For the same compound, the “myofibroblast accumulation in skin and lung” value ([11]; in vivo) was “attenuated”, the skin fibrosis ([11]; in vivo) was “effectively attenuated” and the “transformation of lung fibroblasts to myofibroblasts” value [12] was “attenuated”. The arthritis score [13] was “no attenuating effect”, the oral bioavailability [14] was “orally bioavailable” and the bleomycin-induced skin fibrosis [15] was “attenuation”.
